# Test results taken from ChEMBL document CHEMBL1138106, “The discovery of a potent and selective lethal factor inhibitor for adjunct therapy of anthrax infection” (Bioorg Med Chem Lett, 2006).
# Assays:
# [1] = Cmax in BALB/c mice at 10 mg/kg, iv; assay type: ADME, organism-based; design: dose 10 mg/kg, route intravenous; settings: mouse, in vivo
# [2] = Volume of distribution in rhesus monkey at 1 mg/kg, iv; assay type: ADME, organism-based, Macaca mulatta; design: dose 1 mg/kg, route intravenous; settings: in vivo, read-out: Vdss
# [3] = target: Matrix metalloproteinase-14 (Homo sapiens, UniProt P50281); test: Inhibition of MMP14
# [4] = Clearance in Beagle dog at 1 mg/kg, iv; assay type: ADME, organism-based, Canis lupus familiaris; design: dose 1 mg/kg, route intravenous; settings: in vivo
# Lethal factor [5] = target: T1, Lethal factor (Bacillus anthracis, UniProt P15917)
# T1 sequence (P15917 whole entry): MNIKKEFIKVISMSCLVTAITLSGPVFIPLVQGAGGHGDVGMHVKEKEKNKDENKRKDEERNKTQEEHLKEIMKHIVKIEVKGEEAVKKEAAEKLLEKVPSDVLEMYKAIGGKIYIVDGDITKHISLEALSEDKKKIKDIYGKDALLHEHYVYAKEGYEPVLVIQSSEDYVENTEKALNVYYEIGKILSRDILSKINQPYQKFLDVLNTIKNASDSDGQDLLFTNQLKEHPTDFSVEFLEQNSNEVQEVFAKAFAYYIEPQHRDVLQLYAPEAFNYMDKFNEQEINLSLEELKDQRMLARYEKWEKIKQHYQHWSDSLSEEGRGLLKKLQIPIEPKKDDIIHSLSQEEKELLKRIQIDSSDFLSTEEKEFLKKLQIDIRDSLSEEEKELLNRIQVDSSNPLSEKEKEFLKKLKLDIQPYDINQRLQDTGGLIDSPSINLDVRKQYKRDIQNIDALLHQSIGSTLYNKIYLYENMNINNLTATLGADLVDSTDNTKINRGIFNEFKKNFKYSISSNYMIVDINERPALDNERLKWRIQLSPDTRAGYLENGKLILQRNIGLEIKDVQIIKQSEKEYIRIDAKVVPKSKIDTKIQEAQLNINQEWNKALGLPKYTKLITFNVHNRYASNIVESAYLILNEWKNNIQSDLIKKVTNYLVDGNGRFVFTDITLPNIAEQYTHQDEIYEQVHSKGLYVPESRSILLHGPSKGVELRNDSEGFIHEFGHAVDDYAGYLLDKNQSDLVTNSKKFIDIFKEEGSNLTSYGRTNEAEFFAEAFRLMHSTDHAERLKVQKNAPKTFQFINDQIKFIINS
# Interstitial collagenase = target: T2, Interstitial collagenase (Homo sapiens, UniProt P03956); test: Inhibition of MMP1
# T2 sequence (P03956 whole entry): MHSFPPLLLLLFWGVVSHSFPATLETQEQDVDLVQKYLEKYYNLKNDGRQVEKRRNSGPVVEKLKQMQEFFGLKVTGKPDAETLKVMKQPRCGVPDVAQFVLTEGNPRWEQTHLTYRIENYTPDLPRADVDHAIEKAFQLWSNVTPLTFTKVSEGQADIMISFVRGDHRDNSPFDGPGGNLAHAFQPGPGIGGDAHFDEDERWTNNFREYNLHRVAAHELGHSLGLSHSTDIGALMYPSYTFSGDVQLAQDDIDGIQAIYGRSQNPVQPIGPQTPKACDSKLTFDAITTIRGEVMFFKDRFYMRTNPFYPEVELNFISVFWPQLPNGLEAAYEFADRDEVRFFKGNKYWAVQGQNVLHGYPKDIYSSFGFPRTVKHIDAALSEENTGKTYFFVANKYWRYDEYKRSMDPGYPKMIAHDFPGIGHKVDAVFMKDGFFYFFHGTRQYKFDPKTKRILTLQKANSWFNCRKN
# Neprilysin = Neprilysin (Homo sapiens, UniProt P08473); test: Inhibition of NEP
# [6] = Cmax in rhesus monkey at 1 mg/kg, iv; assay type: ADME, organism-based, Macaca mulatta; design: dose 1 mg/kg, route intravenous; settings: in vivo
# Lethal factor [7] = target: T1, Lethal factor; remark: listed apart in the source
# [8] = Volume of distribution in Guinea pig at 2 mg/kg, iv; assay type: ADME, organism-based, Cavia porcellus; design: dose 2 mg/kg, route intravenous; settings: in vivo, read-out: Vdss
# [9] = Tmax in rhesus monkey at 1 mg/kg, iv; assay type: ADME, organism-based, Macaca mulatta; design: dose 1 mg/kg, route intravenous; settings: in vivo
# [10] = Bioavailability in Beagle dog […], po; assay type: ADME, organism-based, Canis lupus familiaris; settings: in vivo
# [11] = Clearance in New Zealand White rabbit at 5 mg/kg, iv; assay type: ADME, organism-based, Oryctolagus cuniculus; design: dose 5 mg/kg, route intravenous; settings: in vivo
# [12] = target: Disintegrin and metalloproteinase domain-containing protein 17 (Homo sapiens, UniProt P78536); test: Inhibition of TACE
# [13] = Cmax in Dutch Belted rabbit at 2 mg/kg, iv; assay type: ADME, organism-based, Oryctolagus cuniculus; design: dose 2 mg/kg, route intravenous; settings: in vivo
# [14] = Half life in BALB/c mice at 10 mg/kg, iv; assay type: ADME, organism-based; design: dose 10 mg/kg, route intravenous; settings: mouse, in vivo
# [15] = Clearance in BALB/c mice at 10 mg/kg, iv; assay type: ADME, organism-based; design: dose 10 mg/kg, route intravenous; settings: mouse, in vivo
# [16] = target: Angiotensin-converting enzyme (Homo sapiens) (UniProt P12821); test: Inhibition of ACE at 10 uM
# [17] = target: T3, Endothelin-converting enzyme 1 (Homo sapiens) (UniProt P42892); test: Inhibition of ECE at 10 uM
# T3 sequence (whole entry): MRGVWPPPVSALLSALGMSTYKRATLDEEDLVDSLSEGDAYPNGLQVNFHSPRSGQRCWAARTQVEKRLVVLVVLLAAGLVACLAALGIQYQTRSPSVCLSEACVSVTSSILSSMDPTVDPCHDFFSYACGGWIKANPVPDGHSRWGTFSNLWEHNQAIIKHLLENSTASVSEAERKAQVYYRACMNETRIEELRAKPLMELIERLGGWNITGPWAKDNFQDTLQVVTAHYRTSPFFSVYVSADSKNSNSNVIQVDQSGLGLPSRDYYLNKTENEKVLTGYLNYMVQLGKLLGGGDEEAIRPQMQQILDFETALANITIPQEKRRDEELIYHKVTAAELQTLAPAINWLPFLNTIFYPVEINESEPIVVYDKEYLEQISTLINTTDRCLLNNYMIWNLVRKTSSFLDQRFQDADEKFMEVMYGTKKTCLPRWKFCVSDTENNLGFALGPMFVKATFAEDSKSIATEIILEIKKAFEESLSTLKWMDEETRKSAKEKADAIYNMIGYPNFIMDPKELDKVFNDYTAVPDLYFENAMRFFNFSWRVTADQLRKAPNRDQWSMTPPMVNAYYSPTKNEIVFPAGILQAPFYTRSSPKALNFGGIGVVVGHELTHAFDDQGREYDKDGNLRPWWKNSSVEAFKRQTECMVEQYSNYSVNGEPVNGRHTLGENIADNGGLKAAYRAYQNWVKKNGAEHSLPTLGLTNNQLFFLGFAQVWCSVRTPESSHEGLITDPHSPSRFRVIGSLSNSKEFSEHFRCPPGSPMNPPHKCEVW
# [18] = Tmax in Beagle dog at 1 mg/kg, iv; assay type: ADME, organism-based, Canis lupus familiaris; design: dose 1 mg/kg, route intravenous; settings: in vivo
# [19] = Half life in New Zealand White rabbit at 5 mg/kg, iv; assay type: ADME, organism-based, Oryctolagus cuniculus; design: dose 5 mg/kg, route intravenous; settings: in vivo
# [20] = Clearance in Dutch Belted rabbit at 2 mg/kg, iv; assay type: ADME, organism-based, Oryctolagus cuniculus; design: dose 2 mg/kg, route intravenous; settings: in vivo
# [21] = Bioavailability in Sprague-Dawley rat at 2 mg/ml, po; assay type: ADME, organism-based; settings: in vivo
# [22] = Tmax in Sprague-Dawley rat at 1 mg/kg, iv; assay type: ADME, organism-based; design: dose 1 mg/kg, route intravenous; settings: in vivo
# [23] = Bioavailability in BALB/c mice […], po; assay type: ADME, organism-based; settings: mouse, in vivo
# [24] = Half life in Guinea pig at 2 mg/kg, iv; assay type: ADME, organism-based, Cavia porcellus; design: dose 2 mg/kg, route intravenous; settings: in vivo
# Sequence of Disintegrin and metalloproteinase domain-containing protein 17 (P78536 whole entry, the tested form may be a part): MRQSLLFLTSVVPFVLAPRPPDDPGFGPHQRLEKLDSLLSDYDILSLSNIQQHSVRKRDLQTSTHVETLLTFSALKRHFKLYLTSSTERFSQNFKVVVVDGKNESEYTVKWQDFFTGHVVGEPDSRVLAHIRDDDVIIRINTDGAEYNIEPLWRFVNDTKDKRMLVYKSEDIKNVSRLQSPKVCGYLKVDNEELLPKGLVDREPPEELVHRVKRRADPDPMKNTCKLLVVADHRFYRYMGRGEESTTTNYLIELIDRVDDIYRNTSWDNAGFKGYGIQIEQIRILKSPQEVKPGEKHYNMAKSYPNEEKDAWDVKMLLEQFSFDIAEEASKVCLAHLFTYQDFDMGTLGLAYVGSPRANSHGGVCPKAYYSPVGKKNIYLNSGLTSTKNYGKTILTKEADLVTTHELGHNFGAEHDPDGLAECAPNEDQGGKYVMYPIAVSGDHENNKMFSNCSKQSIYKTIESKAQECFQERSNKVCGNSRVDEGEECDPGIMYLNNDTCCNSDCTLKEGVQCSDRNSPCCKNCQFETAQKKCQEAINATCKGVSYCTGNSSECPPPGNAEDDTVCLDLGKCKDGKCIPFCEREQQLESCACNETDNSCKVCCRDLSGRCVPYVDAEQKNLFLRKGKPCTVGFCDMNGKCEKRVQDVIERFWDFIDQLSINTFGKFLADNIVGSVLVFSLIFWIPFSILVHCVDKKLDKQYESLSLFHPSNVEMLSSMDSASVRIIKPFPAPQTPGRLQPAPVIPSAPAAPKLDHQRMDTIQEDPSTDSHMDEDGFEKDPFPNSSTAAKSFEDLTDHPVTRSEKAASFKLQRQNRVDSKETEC
# Sequence of Neprilysin (P08473 whole entry): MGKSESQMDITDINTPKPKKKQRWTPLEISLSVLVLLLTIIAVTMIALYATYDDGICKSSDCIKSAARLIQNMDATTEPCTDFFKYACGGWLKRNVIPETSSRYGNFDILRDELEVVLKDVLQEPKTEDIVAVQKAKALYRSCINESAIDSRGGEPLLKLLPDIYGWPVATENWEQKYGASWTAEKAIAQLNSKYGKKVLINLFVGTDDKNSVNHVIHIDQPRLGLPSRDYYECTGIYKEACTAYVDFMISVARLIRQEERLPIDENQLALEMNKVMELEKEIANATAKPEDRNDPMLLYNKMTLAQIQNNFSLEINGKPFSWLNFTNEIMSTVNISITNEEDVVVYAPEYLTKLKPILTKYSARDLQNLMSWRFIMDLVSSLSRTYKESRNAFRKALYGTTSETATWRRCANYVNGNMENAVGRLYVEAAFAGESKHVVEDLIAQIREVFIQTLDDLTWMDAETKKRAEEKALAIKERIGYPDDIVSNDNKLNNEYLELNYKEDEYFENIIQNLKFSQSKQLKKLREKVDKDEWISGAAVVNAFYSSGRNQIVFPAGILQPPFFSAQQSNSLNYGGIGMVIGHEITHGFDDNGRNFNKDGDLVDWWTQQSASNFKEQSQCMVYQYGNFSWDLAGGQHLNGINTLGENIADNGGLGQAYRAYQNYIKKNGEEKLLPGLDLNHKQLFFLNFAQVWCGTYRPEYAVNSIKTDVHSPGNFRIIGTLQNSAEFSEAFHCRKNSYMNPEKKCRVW
# Sequence of Angiotensin-converting enzyme (Homo sapiens) (P12821 whole entry): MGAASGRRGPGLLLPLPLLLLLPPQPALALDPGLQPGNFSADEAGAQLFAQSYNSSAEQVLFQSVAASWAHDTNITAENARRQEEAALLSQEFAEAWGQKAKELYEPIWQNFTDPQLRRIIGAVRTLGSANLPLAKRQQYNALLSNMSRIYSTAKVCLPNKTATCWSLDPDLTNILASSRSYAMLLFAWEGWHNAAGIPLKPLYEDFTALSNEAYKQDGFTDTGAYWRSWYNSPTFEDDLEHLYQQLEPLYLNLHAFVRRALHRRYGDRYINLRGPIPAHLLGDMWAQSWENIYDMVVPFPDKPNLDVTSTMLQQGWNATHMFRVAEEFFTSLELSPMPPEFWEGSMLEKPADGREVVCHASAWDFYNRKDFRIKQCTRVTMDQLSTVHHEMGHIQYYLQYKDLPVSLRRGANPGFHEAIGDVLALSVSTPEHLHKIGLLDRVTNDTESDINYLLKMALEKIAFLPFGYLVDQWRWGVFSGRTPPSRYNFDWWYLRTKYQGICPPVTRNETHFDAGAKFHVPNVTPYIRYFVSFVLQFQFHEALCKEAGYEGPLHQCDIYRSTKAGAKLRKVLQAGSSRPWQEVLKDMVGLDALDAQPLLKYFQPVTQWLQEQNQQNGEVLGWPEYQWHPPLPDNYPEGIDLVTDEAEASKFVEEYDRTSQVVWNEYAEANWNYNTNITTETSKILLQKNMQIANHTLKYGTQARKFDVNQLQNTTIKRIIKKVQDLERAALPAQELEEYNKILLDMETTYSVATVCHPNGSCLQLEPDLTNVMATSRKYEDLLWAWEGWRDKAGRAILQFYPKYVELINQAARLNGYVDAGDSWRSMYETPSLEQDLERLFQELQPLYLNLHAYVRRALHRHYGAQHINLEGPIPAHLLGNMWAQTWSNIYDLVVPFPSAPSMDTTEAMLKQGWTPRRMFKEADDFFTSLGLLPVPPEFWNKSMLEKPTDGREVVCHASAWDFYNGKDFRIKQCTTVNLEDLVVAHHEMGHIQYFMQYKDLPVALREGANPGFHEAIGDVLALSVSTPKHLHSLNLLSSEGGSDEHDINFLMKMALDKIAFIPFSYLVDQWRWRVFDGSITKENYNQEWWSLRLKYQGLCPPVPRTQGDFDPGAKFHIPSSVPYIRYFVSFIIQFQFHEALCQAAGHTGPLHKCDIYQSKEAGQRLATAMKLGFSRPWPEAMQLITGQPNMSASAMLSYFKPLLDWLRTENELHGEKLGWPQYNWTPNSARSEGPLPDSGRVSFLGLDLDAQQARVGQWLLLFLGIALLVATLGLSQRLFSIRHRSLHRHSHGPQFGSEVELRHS
structure (smiles),measurement,setting,value
Cc1cc(S(=O)(=O)N[C@@H](C(=O)NO)C2CCOCC2)ccc1F,Cmax,[1],120 nM
same,Vd,[2],3.3 L/kg
same,IC50,[3],6.5 µM
same,clearance,[4],15 mL/min/kg
same,IC50,Lethal factor [5],0.21 µM
same,IC50,Interstitial collagenase,2.2 µM
same,IC50,Neprilysin,9.4 µM
same,Cmax,[6],120 nM
same,IC50,Lethal factor [7],0.054 µM
same,Vd,[8],1.1 L/kg
same,Tmax,[9],1.3 h
same,bioavailability,[10],57%
same,clearance,[11],35 mL/min/kg
same,IC50,[12],4.3 µM
same,Cmax,[13],12 nM
same,half-life,[14],0.4 h
same,clearance,[15],72 mL/min/kg
same,inhibition,[16],< 10%
same,inhibition,[17],< 10%
same,Tmax,[18],0.8 h
same,half-life,[19],2.5 h
same,clearance,[20],14 mL/min/kg
same,bioavailability,[21],71%
same,Tmax,[22],0.3 h
same,bioavailability,[23],20%
same,half-life,[24],1.2 h
